The record followed here is ChEMBL document CHEMBL1743341, “Cytochrome p450 enzymes mechanism based inhibitors: common sub-structures and reactivity” (Curr Drug Metab, 2005).

In data set [1] the target is Cytochrome P450 11B1, mitochondrial (Bos taurus, UniProt P15150). Briefly: Mechanism based inhibition of bovine cytochrome P450 CYP11B1. The class given is ADME. The note with it: cattle.
Data set [2] concerns the target T1, CYP2B11 (Canis lupus familiaris, UniProt P24460). Briefly: (§1) Mechanism based inhibition of dog cytochrome P450 CYP2B11 measured by Diazepam N1-demethylation using liver microsomes. It is filed as ADME, Microsome. The note with it: dog, liver microsomes, probe diazepam (N1-demethylation).
The target of data set [3] is T2, Cytochrome P450 2B11 (Canis lupus familiaris, UniProt P24460). The description is as §1. The class given is ADME, Microsome.
For the next data set, the target named is Cytochrome P450 3A12 (Canis lupus familiaris, UniProt P24463). In words: Mechanism based inhibition of dog cytochrome P450 CYP3A12. It is filed as ADME.
Data set [4] deals with T1, CYP2B11. In words: (§2) Mechanism based inhibition of dog cytochrome P450 CYP2B11 measured by Diazepam N1-demethylation using recombinant enzyme. It is filed as ADME. The note with it: dog, recombinant CYP2B11, probe diazepam (N1-demethylation).
Data set [5] concerns the target T2, Cytochrome P450 2B11. The data set is described as §2. It is filed as ADME.
Data set [6] concerns the target Cholesterol side-chain cleavage enzyme, mitochondrial (Bos taurus, UniProt P00189). In words: Mechanism based inhibition of bovine cytochrome P450 CYP11A1. The note with it: cattle. The class given is ADME.
Data set [7] concerns the target T3, Cytochrome P450 1A2 (Rattus norvegicus, UniProt P04799).
T3 sequence (P04799 whole entry): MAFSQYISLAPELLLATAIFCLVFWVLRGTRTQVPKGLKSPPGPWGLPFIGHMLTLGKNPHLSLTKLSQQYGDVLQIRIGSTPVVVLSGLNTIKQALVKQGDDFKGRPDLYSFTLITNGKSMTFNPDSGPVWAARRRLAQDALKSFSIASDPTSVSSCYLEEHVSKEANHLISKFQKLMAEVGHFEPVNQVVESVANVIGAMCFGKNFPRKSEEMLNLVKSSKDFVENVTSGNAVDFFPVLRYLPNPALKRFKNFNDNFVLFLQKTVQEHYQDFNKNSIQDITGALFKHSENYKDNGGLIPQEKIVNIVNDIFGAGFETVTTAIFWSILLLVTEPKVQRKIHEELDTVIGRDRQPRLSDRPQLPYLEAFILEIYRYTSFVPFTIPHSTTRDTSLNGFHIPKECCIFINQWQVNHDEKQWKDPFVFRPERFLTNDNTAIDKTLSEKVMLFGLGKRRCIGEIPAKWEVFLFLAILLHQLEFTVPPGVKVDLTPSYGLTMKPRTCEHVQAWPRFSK
Briefly: (§3) Mechanism based inhibition of rat cytochrome P450 CYP1A2. The class given is ADME.

Data set [8] concerns the target T4, CYP1A2 (Rattus norvegicus, UniProt P04799).
T4 sequence (P04799 whole entry): T3 sequence (P04799 whole entry)
The data set is described as §3. It is filed as ADME. The note with it: rat.

The target of data set [9] is T5, Cytochrome P450 1A2 (Homo sapiens, UniProt P05177).
T5 sequence (P05177 whole entry): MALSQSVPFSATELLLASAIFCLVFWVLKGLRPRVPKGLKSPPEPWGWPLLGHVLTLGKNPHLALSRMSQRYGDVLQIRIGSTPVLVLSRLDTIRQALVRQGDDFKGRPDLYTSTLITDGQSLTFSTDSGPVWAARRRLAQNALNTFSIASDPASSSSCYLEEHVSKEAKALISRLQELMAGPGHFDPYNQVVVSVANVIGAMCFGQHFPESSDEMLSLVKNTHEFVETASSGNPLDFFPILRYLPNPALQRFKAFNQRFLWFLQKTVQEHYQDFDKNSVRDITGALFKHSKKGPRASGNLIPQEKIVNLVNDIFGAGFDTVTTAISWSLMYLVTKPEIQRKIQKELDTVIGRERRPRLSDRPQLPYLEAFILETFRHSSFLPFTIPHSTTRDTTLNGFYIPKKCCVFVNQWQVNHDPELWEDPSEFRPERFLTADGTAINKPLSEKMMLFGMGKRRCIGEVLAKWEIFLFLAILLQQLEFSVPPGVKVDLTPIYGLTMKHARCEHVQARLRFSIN
In words: Mechanism based inhibition of human cytochrome P450 1A2 measured by 7-ethoxyresorufin O-deethylation (EROD). The class given is ADME.

Data set [10] has as its target T6, Cytochrome P450 1A1 (Homo sapiens, UniProt P04798).
T6 sequence (P04798 whole entry): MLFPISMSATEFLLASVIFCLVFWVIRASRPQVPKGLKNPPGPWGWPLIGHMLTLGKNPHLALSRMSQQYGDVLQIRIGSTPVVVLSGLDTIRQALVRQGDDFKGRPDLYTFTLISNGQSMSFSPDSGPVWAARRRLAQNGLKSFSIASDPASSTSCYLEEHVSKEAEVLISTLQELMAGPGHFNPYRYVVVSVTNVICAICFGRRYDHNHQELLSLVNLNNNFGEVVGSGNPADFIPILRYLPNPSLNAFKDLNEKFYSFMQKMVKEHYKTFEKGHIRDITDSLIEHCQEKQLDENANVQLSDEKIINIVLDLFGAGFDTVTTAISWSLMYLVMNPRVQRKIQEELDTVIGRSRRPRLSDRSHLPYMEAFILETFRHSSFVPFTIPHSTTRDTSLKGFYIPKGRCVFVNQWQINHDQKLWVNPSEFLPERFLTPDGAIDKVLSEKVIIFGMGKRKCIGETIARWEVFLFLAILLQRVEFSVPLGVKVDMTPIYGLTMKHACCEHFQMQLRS
In words: Mechanism based inhibition of human cytochrome P450 1A1 measured by 7-ethoxyresorufin O-deethylation (EROD). The class given is ADME.

The target in data set [11] is T7, Cytochrome P450 1A1 (Rattus norvegicus, UniProt P00185).
T7 sequence (P00185 whole entry): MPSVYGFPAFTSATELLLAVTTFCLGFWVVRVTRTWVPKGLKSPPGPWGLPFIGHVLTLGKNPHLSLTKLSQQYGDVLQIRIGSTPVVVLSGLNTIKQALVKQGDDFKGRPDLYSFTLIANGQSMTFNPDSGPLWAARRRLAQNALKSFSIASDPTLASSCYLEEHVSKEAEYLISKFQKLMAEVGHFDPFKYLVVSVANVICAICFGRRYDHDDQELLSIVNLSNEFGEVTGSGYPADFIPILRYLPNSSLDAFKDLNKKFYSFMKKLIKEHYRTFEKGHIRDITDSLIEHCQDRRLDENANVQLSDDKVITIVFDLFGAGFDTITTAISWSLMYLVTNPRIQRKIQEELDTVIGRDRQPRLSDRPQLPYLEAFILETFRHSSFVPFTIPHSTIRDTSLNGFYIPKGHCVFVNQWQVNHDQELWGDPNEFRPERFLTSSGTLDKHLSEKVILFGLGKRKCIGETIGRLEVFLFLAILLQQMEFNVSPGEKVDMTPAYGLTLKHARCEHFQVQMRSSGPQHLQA
In words: (§4) Mechanism based inhibition of rat cytochrome P450 CYP1A1 measured by 7-ethoxyresorufin O-deethylation (EROD). The class given is ADME.

The next data set addresses T8, CYP1A1 (Rattus norvegicus, UniProt P00185).
T8 sequence (P00185 whole entry): T7 sequence (P00185 whole entry)
The data set is described as §4. It is filed as ADME. The note with it: rat, probe 7-ethoxyresorufin (O-deethylation, EROD).

A further data set addresses Cytochrome P450 3A11 (Mus musculus, UniProt Q64459). In words: Mechanism based inhibition of mouse cytochrome P450 CYP3A11. The class given is ADME.
The target in data set [12] is T9, Cytochrome P450 2E1 (Rattus norvegicus, UniProt P05182). In words: (§5) Mechanism based inhibition of rat cytochrome P450 CYP2E1 measured by P-nitrophenol (PNP) hydroxylase activity. It is filed as ADME.
For a further data set, the target named is CYP2E1 (Rattus norvegicus, UniProt P05182). The data set is described as §5. The note with it: rat, probe p-nitrophenol (PNP hydroxylase activity). It is filed as ADME.
Data set [13] concerns the target T9, Cytochrome P450 2E1. Briefly: Mechanism based inhibition of rat cytochrome P450 CYP2E1. It is filed as ADME.
Data set [14] has as its target T3, Cytochrome P450 1A2. Briefly: (§6) Mechanism based inhibition of rat cytochrome P450 CYP1A2 measured by zolmitriptan metabolism. The class given is ADME.
Data set [15] deals with T4, CYP1A2. The data set is described as §6. The note with it: rat, probe zolmitriptan (metabolism). The class given is ADME.

T9 sequence (P05182 whole entry): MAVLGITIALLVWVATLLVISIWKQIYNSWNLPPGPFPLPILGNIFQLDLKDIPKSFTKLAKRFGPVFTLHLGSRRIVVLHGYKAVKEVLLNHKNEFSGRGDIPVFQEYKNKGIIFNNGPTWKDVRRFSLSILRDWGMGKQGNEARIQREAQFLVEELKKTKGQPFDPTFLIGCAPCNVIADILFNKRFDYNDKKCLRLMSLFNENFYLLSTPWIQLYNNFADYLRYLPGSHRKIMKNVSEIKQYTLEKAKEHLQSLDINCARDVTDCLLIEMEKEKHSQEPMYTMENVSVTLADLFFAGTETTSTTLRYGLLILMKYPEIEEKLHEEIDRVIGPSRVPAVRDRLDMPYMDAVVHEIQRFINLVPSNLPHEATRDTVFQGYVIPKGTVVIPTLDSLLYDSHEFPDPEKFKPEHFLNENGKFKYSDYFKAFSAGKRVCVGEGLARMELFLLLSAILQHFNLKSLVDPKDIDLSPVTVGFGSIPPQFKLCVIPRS
T2 sequence (P24460 whole entry): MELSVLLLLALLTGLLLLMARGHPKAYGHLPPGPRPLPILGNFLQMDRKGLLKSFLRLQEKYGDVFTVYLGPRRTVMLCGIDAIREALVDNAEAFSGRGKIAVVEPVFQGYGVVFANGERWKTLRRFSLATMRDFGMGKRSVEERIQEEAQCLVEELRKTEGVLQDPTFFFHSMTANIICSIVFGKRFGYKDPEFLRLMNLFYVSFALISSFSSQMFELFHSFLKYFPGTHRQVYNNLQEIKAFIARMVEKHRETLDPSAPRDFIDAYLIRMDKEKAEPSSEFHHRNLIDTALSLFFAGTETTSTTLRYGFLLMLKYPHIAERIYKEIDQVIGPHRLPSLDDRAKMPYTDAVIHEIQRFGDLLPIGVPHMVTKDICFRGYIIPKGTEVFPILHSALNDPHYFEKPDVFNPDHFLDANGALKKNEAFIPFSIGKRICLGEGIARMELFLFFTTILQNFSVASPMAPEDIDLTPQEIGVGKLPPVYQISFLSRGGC
T1 sequence (P24460 whole entry): as above
Chain of CYP2E1 (P05182 whole entry): as the sequence (P05182 whole entry) above
Chain of Cholesterol side-chain cleavage enzyme, mitochondrial (P00189 whole entry): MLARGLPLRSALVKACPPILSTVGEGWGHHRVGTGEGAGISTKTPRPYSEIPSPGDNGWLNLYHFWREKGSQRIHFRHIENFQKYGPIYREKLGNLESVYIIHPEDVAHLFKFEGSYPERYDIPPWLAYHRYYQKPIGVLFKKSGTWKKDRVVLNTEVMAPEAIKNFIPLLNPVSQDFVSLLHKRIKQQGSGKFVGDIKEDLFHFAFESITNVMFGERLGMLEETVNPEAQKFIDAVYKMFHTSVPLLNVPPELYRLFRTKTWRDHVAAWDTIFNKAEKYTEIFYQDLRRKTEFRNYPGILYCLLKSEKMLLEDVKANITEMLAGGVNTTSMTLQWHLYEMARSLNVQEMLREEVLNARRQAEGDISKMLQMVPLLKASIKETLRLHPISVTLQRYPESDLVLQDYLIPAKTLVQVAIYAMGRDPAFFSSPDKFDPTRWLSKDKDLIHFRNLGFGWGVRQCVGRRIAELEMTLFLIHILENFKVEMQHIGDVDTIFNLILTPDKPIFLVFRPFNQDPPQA
Chain of Cytochrome P450 11B1, mitochondrial (P15150 whole entry): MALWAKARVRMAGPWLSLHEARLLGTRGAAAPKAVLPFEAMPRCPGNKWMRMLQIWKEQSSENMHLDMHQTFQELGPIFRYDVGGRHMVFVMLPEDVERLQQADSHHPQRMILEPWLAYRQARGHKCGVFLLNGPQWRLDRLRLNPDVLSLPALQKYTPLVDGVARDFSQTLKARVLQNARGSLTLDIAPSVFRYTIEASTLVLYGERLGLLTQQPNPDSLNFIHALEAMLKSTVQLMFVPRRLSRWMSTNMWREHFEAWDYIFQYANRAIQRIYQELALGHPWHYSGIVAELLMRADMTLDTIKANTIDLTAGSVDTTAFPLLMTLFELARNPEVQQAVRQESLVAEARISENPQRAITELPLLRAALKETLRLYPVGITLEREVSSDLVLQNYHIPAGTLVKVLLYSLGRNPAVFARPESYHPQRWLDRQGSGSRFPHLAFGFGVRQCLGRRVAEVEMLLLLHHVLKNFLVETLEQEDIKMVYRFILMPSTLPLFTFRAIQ
Chain of Cytochrome P450 3A12 (P24463 whole entry): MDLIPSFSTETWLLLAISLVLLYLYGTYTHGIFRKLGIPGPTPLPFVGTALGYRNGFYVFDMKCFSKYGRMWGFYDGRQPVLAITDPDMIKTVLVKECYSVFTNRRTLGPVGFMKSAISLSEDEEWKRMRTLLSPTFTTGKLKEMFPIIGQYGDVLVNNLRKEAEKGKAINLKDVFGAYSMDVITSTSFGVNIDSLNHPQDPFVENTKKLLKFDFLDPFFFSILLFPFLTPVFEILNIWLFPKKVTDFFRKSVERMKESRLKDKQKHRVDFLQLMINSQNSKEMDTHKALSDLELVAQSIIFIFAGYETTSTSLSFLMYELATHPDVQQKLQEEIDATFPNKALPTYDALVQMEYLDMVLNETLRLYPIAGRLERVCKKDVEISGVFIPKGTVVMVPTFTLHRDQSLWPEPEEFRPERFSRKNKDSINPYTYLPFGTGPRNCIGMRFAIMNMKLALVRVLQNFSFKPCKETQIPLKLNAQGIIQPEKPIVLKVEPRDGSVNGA
Chain of Cytochrome P450 3A11 (Q64459 whole entry): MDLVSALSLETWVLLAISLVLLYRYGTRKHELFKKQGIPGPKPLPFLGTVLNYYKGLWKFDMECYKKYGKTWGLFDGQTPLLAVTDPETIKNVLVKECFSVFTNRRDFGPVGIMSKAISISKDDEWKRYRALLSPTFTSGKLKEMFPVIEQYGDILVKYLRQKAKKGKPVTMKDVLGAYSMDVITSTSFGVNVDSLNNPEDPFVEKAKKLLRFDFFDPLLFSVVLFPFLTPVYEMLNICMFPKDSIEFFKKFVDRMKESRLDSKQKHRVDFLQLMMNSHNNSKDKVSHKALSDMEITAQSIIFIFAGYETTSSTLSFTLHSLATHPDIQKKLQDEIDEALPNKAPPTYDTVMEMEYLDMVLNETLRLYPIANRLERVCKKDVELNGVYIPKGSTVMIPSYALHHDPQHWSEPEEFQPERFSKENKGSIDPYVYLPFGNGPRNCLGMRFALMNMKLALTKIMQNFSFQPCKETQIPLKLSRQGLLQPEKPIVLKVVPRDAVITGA

On to `C=CC[C@]12CC[C@H]3[C@@H](CCC4=CC(=O)CC[C@@]43C)[C@@H]1CC[C@@H]2C(C)=O`, for which the mechanism based inhibition entry in data set [1] was “Cytochrome P450 mechanistic inhibitor: PMID 8645613”.
A word on the kinact: it is the maximal first-order rate at which the target is inactivated. Turning to `CC(Nn1nnc2ccccc21)c1ccccc1` (centres undefined), the results for the maximal inactivation rate constant (kinact) on CYP2B11 [2] and on CYP2B11 [4] were 0.00933 s⁻¹ and 0.025 s⁻¹, respectively. Besides, the values for the Ki on Cytochrome P450 2B11 [3] and at Cytochrome P450 2B11 [5] were 460 nM and 350 nM, respectively. Further, at Cytochrome P450 3A12, the mechanism based inhibition entry was “Cytochrome P450 mechanistic inhibitor: PMID 15677349”.
On to `CC(C)CCS[C@@H](C)[C@H]1CC[C@H]2[C@@H]3CC=C4C[C@@H](O)CC[C@]4(C)[C@H]3CC[C@]12C`, for which the mechanism based inhibition result in [6] is reported as “Cytochrome P450 mechanistic inhibitor: PMID 7599132”.
For the molecule `CC#Cc1ccc2c(ccc3ccccc32)c1`, the Ki at Cytochrome P450 1A2 [7] worked out at 30 nM; on Cytochrome P450 1A1 [11], 10 nM. For the same molecule, the kinact at CYP1A2 [8] and at CYP1A1 was 0.005 s⁻¹ in each case. For the same molecule, the mechanism based inhibition result at Cytochrome P450 1A2 [9] and on Cytochrome P450 1A1 [10] was “Cytochrome P450 mechanistic inhibitor: PMID 9760279” throughout.
As to `C=C(C)[C@@H]1CCC(C)=C[C@H]1c1c(O)cc(CCCCC)cc1O` [CANNABIDIOL], the mechanism based inhibition entry on Cytochrome P450 3A11 is on record as “Cytochrome P450 mechanistic inhibitor: PMID 9778318”.
Molecule `C=CCS(=O)(=O)CC=C` [DIALLYLSULFONE] showed a Ki on Cytochrome P450 2E1 [12] of 188 µM. For the same molecule, at CYP2E1, the kinact is 0.00533 s⁻¹. Besides, the mechanism based inhibition entry at Cytochrome P450 2E1 [13] is recorded as “Cytochrome P450 mechanistic inhibitor: PMID 9084912”.
The molecule `COCCCC/C(=N\OCCN)c1ccc(C(F)(F)F)cc1` [FLUVOXAMINE] registered a Ki at Cytochrome P450 1A2 [14] of 57.4 µM. Further, the kinact at CYP1A2 [15] is 0.00267 s⁻¹.
